Assay results reported in BindingDB's records for patent US12209085 (Sunshine Lake Pharma Co., 2025).

Experiments:
Test in all cases: Inhibitory Activity Assay
[1] = target: Proto-oncogene tyrosine-protein kinase receptor Ret (Homo sapiens, UniProt P07949)
[2] = target: Proto-oncogene tyrosine-protein kinase receptor Ret [V804M] (Human, UniProt P07949, V804M)
[3] = target: Proto-oncogene tyrosine-protein kinase receptor Ret [M918T] (Homo sapiens, UniProt P07949, M918T)
[4] = target: Proto-oncogene tyrosine-protein kinase receptor Ret [V804L] (Homo sapiens, UniProt P07949, V804L)
[5] = target: Coiled-coil domain-containing protein 6/Proto-oncogene tyrosine-protein kinase receptor Ret (Homo sapiens, UniProt P07949)
Sequence of Coiled-coil domain-containing protein 6/Proto-oncogene tyrosine-protein kinase receptor Ret (P07949 whole entry, the tested form may be a part): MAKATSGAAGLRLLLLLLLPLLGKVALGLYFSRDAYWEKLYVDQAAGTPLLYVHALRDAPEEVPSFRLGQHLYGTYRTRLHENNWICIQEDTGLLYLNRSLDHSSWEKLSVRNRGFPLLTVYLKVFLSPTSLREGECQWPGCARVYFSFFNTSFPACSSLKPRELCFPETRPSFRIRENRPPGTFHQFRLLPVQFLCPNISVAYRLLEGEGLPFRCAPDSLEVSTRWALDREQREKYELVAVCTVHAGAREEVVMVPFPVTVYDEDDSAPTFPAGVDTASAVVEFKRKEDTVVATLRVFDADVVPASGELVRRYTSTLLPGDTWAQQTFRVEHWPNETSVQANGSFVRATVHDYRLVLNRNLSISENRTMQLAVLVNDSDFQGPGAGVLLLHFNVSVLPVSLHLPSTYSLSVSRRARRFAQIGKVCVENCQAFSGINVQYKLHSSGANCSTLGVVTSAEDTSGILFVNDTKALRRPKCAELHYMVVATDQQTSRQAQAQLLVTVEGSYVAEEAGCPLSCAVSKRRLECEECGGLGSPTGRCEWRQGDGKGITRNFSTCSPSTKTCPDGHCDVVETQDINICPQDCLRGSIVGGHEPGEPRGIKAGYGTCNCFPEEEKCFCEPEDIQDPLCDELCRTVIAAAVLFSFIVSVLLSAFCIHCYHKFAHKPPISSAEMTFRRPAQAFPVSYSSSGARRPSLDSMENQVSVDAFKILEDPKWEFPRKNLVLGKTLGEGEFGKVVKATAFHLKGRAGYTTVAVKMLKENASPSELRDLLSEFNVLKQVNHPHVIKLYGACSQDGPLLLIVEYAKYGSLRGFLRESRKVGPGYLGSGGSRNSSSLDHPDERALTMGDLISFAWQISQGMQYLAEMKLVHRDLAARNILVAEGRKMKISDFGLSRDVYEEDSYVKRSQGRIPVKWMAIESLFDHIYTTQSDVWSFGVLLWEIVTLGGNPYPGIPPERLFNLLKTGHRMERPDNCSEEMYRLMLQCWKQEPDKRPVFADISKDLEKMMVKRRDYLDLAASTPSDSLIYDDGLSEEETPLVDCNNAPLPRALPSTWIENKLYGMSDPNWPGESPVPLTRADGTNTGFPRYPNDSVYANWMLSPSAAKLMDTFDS
Sequence of Coiled-coil domain-containing protein 6/Proto-oncogene tyrosine-protein kinase receptor Ret (Q16204 whole entry, further chain, the tested form may be a part): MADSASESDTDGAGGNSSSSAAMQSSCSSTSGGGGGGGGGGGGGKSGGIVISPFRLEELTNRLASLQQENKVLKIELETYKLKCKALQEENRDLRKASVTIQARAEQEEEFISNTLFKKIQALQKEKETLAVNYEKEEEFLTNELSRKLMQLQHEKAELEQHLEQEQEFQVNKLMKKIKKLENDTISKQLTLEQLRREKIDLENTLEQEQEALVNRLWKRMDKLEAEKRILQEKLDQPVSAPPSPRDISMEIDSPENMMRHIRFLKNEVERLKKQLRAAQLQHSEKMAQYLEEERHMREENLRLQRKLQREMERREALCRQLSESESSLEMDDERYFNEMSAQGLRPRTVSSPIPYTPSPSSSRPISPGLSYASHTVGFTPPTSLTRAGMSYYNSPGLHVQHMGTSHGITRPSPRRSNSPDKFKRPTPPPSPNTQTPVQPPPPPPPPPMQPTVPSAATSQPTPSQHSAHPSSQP

Sequence of Proto-oncogene tyrosine-protein kinase receptor Ret [V804M] (P07949 29-1114 V804M limits assumed): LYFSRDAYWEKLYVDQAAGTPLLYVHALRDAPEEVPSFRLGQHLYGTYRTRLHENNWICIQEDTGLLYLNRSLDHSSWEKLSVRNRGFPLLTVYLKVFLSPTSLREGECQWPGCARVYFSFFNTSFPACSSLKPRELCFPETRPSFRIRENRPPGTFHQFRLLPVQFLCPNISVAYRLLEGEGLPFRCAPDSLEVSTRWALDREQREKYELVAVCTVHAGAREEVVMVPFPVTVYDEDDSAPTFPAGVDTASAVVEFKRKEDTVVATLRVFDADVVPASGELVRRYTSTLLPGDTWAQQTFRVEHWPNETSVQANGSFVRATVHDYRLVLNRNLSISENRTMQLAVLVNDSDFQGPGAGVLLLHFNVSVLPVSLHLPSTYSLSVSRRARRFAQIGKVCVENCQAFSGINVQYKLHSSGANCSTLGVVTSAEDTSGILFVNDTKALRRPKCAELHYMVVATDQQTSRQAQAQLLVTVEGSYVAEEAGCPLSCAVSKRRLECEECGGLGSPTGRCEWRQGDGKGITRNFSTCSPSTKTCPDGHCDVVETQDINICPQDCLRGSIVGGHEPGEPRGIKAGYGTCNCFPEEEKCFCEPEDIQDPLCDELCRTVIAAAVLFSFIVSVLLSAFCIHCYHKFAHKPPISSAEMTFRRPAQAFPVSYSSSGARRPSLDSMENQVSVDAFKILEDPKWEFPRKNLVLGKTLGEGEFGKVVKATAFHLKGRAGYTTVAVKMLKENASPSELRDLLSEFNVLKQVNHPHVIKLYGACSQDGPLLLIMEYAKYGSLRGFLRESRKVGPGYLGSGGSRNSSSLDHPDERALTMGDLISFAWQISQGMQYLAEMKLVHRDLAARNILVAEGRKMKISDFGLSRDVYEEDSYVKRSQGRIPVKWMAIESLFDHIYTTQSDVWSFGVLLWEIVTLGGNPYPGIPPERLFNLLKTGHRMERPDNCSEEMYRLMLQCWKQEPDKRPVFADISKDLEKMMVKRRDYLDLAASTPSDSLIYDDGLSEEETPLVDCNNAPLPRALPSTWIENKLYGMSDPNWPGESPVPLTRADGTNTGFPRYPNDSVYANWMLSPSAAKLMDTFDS
Sequence of Proto-oncogene tyrosine-protein kinase receptor Ret (P07949 whole entry): as the sequence (P07949 whole entry, the tested form may be a part) above
Sequence of Proto-oncogene tyrosine-protein kinase receptor Ret [M918T] (P07949 29-1114 M918T limits assumed): as the sequence (P07949 29-1114 V804M limits assumed) above, with M776V, M890T counted along it
Sequence of Proto-oncogene tyrosine-protein kinase receptor Ret [V804L] (P07949 29-1114 V804L limits assumed): as the sequence (P07949 29-1114 V804M limits assumed) above, with M776L counted along it

Row | IC50 [3] [nM] | IC50 [4] [nM] | IC50 [5] [nM] | SMILES | IC50 [1] [nM] | IC50 [2] [nM]
1 | – | – | – | C#Cc1ccc(CN2C3CC2CN(c2ccc(-c4cc(-c5cnn(C)c5)cn5ncc(C#N)c45)cn2)C3)cn1 [US12209085, Example 186] | 0.17 | 0.76
2 | – | – | – | C#Cc1ncc(CN2C3CC2CN(c2ccc(-c4cc(-c5cnn(C)c5)cn5ncc(C#N)c45)cn2)C3)cc1F [US12209085, Example 227] | 0.13 | 0.3
3 | 1.92 | 2.35 | 3.16 | C#Cc1cccc(C(=O)NC2CCN(c3ccc(-c4cc(-c5cnn(C)c5)cn5ncc(C#N)c45)cn3)CC2)c1 [US12209085, Example 268] | 2.69 | 30.8
4 | – | – | – | C#CC#CCN1C2CC1CN(c1ccc(-c3cc(-c4cnn(C)c4)cn4ncc(C#N)c34)cn1)C2 [US12209085, Example 276] | 0.39 | 1.08
